{"source": "patent US10493044B1", "about": "“Method for treating developmental retinal vascular disorder” (priority 2018, dated 2019)", "key": {"PKM2": {"tested_on": "PKM2", "assay": "Western blot of retinal PKM2 after I/R", "format": "in vivo, rat", "settings": "intravitreal 1 day pre-ischemia: 10 μM/5 μl JIB-04, 4 μM/5 μl shikonin, 125 μg/5 μl avastin; Vehicle+I/R = 100%", "procedure": "(§1) DNL was purchased from the Ko Da Company (Taipei, Taiwan) and dissolved in ddH2O. For the electrophysiological, immuohistochemical and molecular biological studies, drug administration was carried out for seven days and involved various groups, namely a post-ischemia administration (daily high dose of DNL at 1 g/kg/day, I/R+DNL1.0), or pre-ischemia administration (daily high dose of DNL, DNL1.0+I/R; low dose of DNL at 0.5 g/kg/day, DNL0.5+I/R). The rats in the vehicle group that were subjected to ischemia were either post-administered (I/R+Vehicle) or pre-administered with a similar volume of vehicle (Vehicle+I/R) as the DNL group.\n(§2) As compared with the Sham, Vehicle+I/R or DNL1.0+I/R group, the ischemic eyes of other groups received intravitreal injections using a 30-gauge needle connected to a 25 μl syringe after the pupil was dilated with 1% tropicamide and 2.5% phenylephrine. Specifically, the ischemic eyes received 1 day pre-ischemia intravitreal administrations of various inhibitors/antibodies, namely 10 μM/5 μl JIB-04 (Sigma-Aldrich), 4 μM/5 μl Shikonin (S7576; Sigma-Aldrich), 125 μg/5 μl Avastin (Hoffmann-La Roche), or 200 μg/5 μl Eylea (Regeneron Pharmaceuticals Inc.). One day after retinal I/R and administration of relevant compounds or after a sham procedure, the animals were sacrificed. Retinal samples were collected in order to measure the protein levels of […], RBP2, PKM2, VEGF-A and PLGF by the western blot assay or ELISA.\n(§3) Ischemia induction. Each rat was anesthetized with the above anesthetics and placed in a stereotaxic frame. […]\n(§4) Retinal/cellular samples were retrieved and sonicated in lysis buffer, namely mammalian protein extraction reagent (MPER; HyCell). Identical quantities of denatured proteins (40 μg/30 μl/well) then underwent sodium dodecyl sulfate polyacrylamide gel electrophoresis (SDS-PAGE; Bio-Rad) as described previously. […] The amount of each protein was then evaluated by scanning densitometry."}, "HIF-1α": {"tested_on": "HIF-1α", "assay": "Western blot of retinal HIF-1α after I/R", "format": "in vivo, rat", "settings": "intravitreal 1 day pre-ischemia: 10 μM/5 μl JIB-04, 4 μM/5 μl shikonin, 125 μg/5 μl avastin; Vehicle+I/R = 100%", "procedure": "as §1\n(§5) As compared with the Sham, Vehicle+I/R or DNL1.0+I/R group, the ischemic eyes of other groups received intravitreal injections using a 30-gauge needle connected to a 25 μl syringe after the pupil was dilated with 1% tropicamide and 2.5% phenylephrine. […]\nas §4"}, "RBP2": {"tested_on": "RBP2", "assay": "Western blot of retinal RBP2 after I/R", "format": "in vivo, rat", "settings": "intravitreal 1 day pre-ischemia: 10 μM/5 μl JIB-04, 4 μM/5 μl shikonin, 125 μg/5 μl avastin; Vehicle+I/R = 100%", "procedure": "as §1, §2, §3, §4"}, "VEGF": {"tested_on": "VEGF", "assay": "Western blot of retinal VEGF after I/R", "format": "in vivo, rat", "settings": "intravitreal 1 day pre-ischemia: 10 μM/5 μl JIB-04, 4 μM/5 μl shikonin, 125 μg/5 μl avastin; Vehicle+I/R = 100%", "procedure": "as §1, §2, §3, §4"}, "two cell lines": {"tested_on": "two cell lines", "settings": "cited from earlier work"}, "[1]": {"tested_on": "norrie disease protein (NDP)", "assay": "Western blotting of NDP relative to β-actin in RGC-5 cells subjected to OGD", "format": "cell-based, mouse", "procedure": "Moscatilin was purchased from EMMX Biotechnology (EN10271, CA, USA) and dissolved in DMSO (vehicle). […] Moscatilin (0.1 μM) was administered at 1 hour pre-OGD, during OGD, or at 1 hour post-OGD. Its therapeutic effects were evaluated by MTT and Western blotting assays.\n(§6) The RCG-5 cell lines were not transformed rat RGCs but, rather, mouse retinal neuronal precursors. OGDs were defined as cells that were maintained in glucose-free DMEM (Thermo Fisher Scientific Inc.) at 37° C. under the hypoxic (ischemic-like) conditions, namely 1% O2 (monitored by an analyzer; Penguin Incubator: control range 1-89%; Astec Company, Kukuoka, Japan), 94% N2 and 5% CO2. There were different groups, consisting of cells that received (i) DMSO in DMEM (control cells; DMSO+DMEM), (ii) DMSO followed by OGD (DMSO+OGD), (iii) OGD and administration of moscatilin (0.1 μM in DMEM) at 1 hour pre-OGD (Pre-OGD Mos 0.1 μM), (iv) during OGD (During OGD Mos 0.1 μM), or (v) at 1 hour post-OGD (Post-OGD Mos 0.1 μM). At the end of the 1 day OGD period, the cell cultures were returned to fresh DMEM for another 24 h. The MTT (viability) and the Western blotting assays (NDP) were then performed.\nRetinal/cellular samples were retrieved and sonicated in lysis buffer, namely mammalian protein extraction reagent (MPER; HyCell). Identical quantities of denatured proteins (40 μg/30 μl/well) then underwent sodium dodecyl sulfate polyacrylamide gel electrophoresis (SDS-PAGE; Bio-Rad) as described previously. After separation, the protein bands were transferred to a polyvinylidene difluoride (PVDF) membrane and then immersed for 12 hours at 4° C. with the following primary antibodies, mouse monoclonal anti-β-actin antibody (AC-15; 1:2,000; ab6276)/anti-HIF-1α antibody (1:200; H1alpha67-ChIP Grade; Abcam Inc.), rabbit polyclonal anti-VEGF antibody (A-20; 1:200; sc-152)/anti-PKM2 antibody (1:500; ab38237), or rabbit monoclonal anti-RBP2 antibody (ab177486; 1:1000; Abcam Inc.). […] The amount of each protein was then evaluated by scanning densitometry."}, "[2]": {"assay": "MTT cell viability assay of RGC-5 cells subjected to oxygen glucose deprivation (OGD)", "format": "cell-based, mouse", "settings": "mouse, RGC-5 cells subjected to oxygen glucose deprivation (OGD), cytotoxic effect", "procedure": "(§7) Moscatilin was purchased from EMMX Biotechnology (EN10271, CA, USA) and dissolved in DMSO (vehicle). […] […] Its therapeutic effects were evaluated by MTT and Western blotting assays.\nas §6, with “([…]),” for “(iii) OGD and administration of moscatilin (0.1 μM in DMEM) at 1 hour pre-OGD (Pre-OGD Mos 0.1 μM),”\n(§8) Mitochondria NADPH dependent oxidoreductases were capable of reducing MTT to form formazan. Therefore, an increase in the amount of dark purple formazan corresponded to greater cell viability. MTT (0.5 mg/mL; Sigma-Aldrich) was added and allowed to react for 3 hr at 37° C. to the 96-well plates containing the original 100 μL of cells. The reduced MTT was then solubilized by adding 100 μL DMSO. After agitation of the plates, the OD of the solubilized formazan was measured using an ELISA reader (Synergy H1 Multi-Mode Reader BioTek Instruments) at 562 nm. Cell viability was expressed as OD values relative to the control (100%)."}, "RGC-5 cells": {"tested_on": "RGC-5 cells", "assay": "MTT cell viability assay of RGC-5 cells subjected to oxygen glucose deprivation (OGD)", "format": "cell-based, mouse", "settings": "Mus musculus", "procedure": "as §7\nas §6, with “([…]),” for “(iii) OGD and administration of moscatilin (0.1 μM in DMEM) at 1 hour pre-OGD (Pre-OGD Mos 0.1 μM),”\nas §8"}, "[3]": {"tested_on": "placental growth factor (PLGF)", "assay": "ELISA of retinal PLGF after I/R", "format": "in vivo, rat", "settings": "pre-ischemia intravitreal 200 μg/5 μl Eylea (Eylea+I/R); Vehicle+I/R 39.53±5.25", "procedure": "as §1, §5\nThe level of PLGF was determined using ELISA. […] The total protein in each sample was determined using a bicinchoninic acid protein kit (Thermo Fisher Scientific). The PLGF levels in the supernatant were measured using a PLGF ELISA kit (CSB-E07400r; Cusabio Life Scince) accordingly. […] The maximum absorbance (OD) at 450 nm was detected immediately using a microplate reader (Synergy H1 Hybrid Multi-Mode Reader, Biotek ELx800). […]"}}, "note": "Several values for one entry are separate records, joined by “and”; a condition that tells them apart may be missing. Equal values may be shown once.", "data": [{"compound": "Clc1ccc(N/N=C(\\c2ccccc2)c2ccccn2)nc1", "note": "[JIB-04]", "values": [{"measurement": "level of PKM2 (ratio to β-actin)", "setting": "PKM2", "value": "60.36±7.59", "unit": "%"}, {"measurement": "level of HIF-1α (ratio to β-actin)", "setting": "HIF-1α", "value": "53.98±2.29", "unit": "%"}, {"measurement": "level of RBP2 (ratio to β-actin)", "setting": "RBP2", "value": "5.83±1.43", "unit": "%"}, {"measurement": "level of VEGF (ratio to β-actin)", "setting": "VEGF", "value": "27.82±1.21", "unit": "%"}]}, {"compound": "COc1cc(CCc2cc(OC)c(O)c(OC)c2)ccc1O", "note": "[moscatilin]", "values": [{"measurement": "IC50", "setting": "two cell lines; 24 h, two cell lines, respectively, previous reports, read-out: IC50 of reduced cell viability", "value": "7 µM and 6.7 µM"}, {"measurement": "toxicity to cells", "setting": "two cell lines; concentrations equal to or less than 1 μM, previous researches", "value": "non-toxic"}, {"measurement": "amount of NDP relative to β-actin", "setting": "[1]; 0.1 μM moscatilin 1 hour pre-OGD, DMSO+DMEM = 100%, DMSO+OGD 44.54±3.15%", "value": "108.38±29.33", "unit": "%"}, {"measurement": "amount of NDP relative to β-actin", "setting": "[1]; 0.1 μM moscatilin 1 h post-OGD", "value": "54.36±3.88", "unit": "%"}, {"measurement": "amount of NDP relative to β-actin", "setting": "[1]; 0.1 μM moscatilin during OGD", "value": "48.99±9.89", "unit": "%"}, {"measurement": "viability at 10 μM", "setting": "[2]; 10 μM moscatilin pre-OGD, n=4", "value": "15.4 ± 3.09", "unit": "%"}, {"measurement": "viability at 100 μM", "setting": "[2]; 100 μM moscatilin pre-OGD, n=1", "value": 12.5, "unit": "%"}, {"measurement": "viability at 0.1 µM", "setting": "RGC-5 cells; RGC5, 0.1 μM moscatilin during OGD, P=0.31 vs DMSO+OGD", "value": "56 ± 4.08", "unit": "%"}, {"measurement": "viability at 1 µM", "setting": "RGC-5 cells; RGC5, 1 μM moscatilin pre-OGD, n=4", "value": "66.4 ± 9.35", "unit": "%"}, {"measurement": "viability at 0.1 µM", "setting": "RGC-5 cells; RGC5, 1 h, 0.1 μM moscatilin at 1 hour post-OGD, P=0.41 vs DMSO+OGD", "value": "52.6 ± 4.16", "unit": "%"}, {"measurement": "viability at 0.1 µM", "setting": "RGC-5 cells; RGC5, 1 h, 0.1 μM moscatilin at 1 hour pre-OGD, relative to DMSO+DMEM control (100%), DMSO+OGD 53.66±2.67%", "value": "62.6 ± 4.35", "unit": "%"}]}, {"compound": "CC(C)=CC[C@@H](O)C1=CC(=O)c2c(O)ccc(O)c2C1=O", "note": "[shikonin]", "values": [{"measurement": "level of PKM2 (ratio to β-actin)", "setting": "PKM2", "value": "44.94±10.91", "unit": "%"}, {"measurement": "level of HIF-1α (ratio to β-actin)", "setting": "HIF-1α", "value": "42.65±0.76", "unit": "%"}, {"measurement": "level of RBP2 (ratio to β-actin)", "setting": "RBP2", "value": "3.40±0.23", "unit": "%"}, {"measurement": "level of VEGF (ratio to β-actin)", "setting": "VEGF", "value": "57.55±9.40", "unit": "%"}]}, {"compound": "Eylea: VEGF trap/anti-PLGF (Regeneron Pharmaceuticals Inc.)", "values": [{"measurement": "level of PLGF", "setting": "[3]", "value": "6.44 ± 0.60", "unit": "pg/mL"}]}, {"compound": "avastin: VEGF antibody (Hoffmann-La Roche)", "values": [{"measurement": "level of PKM2 (ratio to β-actin)", "setting": "PKM2", "value": "84.44±4.53", "unit": "%"}, {"measurement": "level of RBP2 (ratio to β-actin)", "setting": "RBP2", "value": "78.35±3.29", "unit": "%"}, {"measurement": "level of VEGF (ratio to β-actin)", "setting": "VEGF", "value": "5.38±2.51", "unit": "%"}]}]}
